The source of these data is patent EP4786466A1, “QUINAZOLINE DERIVATIVE, SALT THEREOF, AND PHARMACEUTICAL COMPOSITION COMPRISING SAME AS ACTIVE INGREDIENT” (Korea Research Institute of Chemical Technology, priority 2023, dated 2025).

The target of data set [1] is T1, Recombinant GST-TAG-MASTL (Homo sapiens, UniProt Q96GX5).
T1 construct: GST; purchased Thermo Fisher Scientific
T1 sequence (Q96GX5 1-879): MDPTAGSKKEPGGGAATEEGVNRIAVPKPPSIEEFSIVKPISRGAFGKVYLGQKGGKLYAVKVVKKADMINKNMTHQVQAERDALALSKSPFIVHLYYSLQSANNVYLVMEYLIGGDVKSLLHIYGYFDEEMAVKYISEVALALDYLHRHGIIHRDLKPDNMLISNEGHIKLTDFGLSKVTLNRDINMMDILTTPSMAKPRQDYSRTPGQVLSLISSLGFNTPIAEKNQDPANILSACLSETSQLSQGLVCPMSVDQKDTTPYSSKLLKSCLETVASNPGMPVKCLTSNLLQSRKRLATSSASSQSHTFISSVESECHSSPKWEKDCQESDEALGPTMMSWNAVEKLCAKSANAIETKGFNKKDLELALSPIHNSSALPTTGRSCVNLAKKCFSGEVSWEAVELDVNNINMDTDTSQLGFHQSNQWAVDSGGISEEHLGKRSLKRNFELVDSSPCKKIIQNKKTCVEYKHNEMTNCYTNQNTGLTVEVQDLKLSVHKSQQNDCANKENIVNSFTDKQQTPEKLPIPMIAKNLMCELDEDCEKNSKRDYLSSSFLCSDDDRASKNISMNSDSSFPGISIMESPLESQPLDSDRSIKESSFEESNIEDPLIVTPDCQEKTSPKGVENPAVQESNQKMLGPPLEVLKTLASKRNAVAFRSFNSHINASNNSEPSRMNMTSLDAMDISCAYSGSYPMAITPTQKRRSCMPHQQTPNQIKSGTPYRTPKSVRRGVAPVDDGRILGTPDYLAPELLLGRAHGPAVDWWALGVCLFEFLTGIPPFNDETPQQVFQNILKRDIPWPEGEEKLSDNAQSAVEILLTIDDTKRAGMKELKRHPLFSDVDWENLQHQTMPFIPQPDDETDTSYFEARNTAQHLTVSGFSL
In words: HTRF-based kinase assay (HTRF KinEASE assay kit). The format is biochemical. The following applies: for activity at 1 µM: read-out: MASTL activity (%) HTRF (1 µM); for IC50: HTRF, read-out: IC50(nM) MASTL activity; for activity at 10 µM: footnote b: concentration 10 µM, read-out: MASTL activity (%) HTRF. An excerpt:
Recombinant GST-TAG-MASTL (Thermo Fisher Scientific, MA, USA) was used for HTRF-based kinase assays. The HTRF KinEASE assay kit (CisBio, MA, USA) was used according to the manufacturer's instructions.

Data set [2] relates to MCF7 breast cancer cell lines. The data set is described as follows: Cell viability analysis, WST-8 assay, MCF7. The note with it: Homo sapiens, MCF7, 72 h; for viability at 1.1 µM: read-out: Cell viability (%) WST-8, MCF7, footnote d: concentration 1.1 µM, 72 hours; for viability at 1 µM: read-out: Cell viability (%) WST-8, MCF7 (1 µM), compound 1 µM, 72 hours; for viability at 10 µM: read-out: Cell viability (%) WST-8, MCF7, footnote b: concentration 10 µM, 72 hours; for IC50: read-out: IC50 Cell viability (MCF7). A general note: Tetrazolium assays rely on reduction of a dye to a coloured formazan, in cell work by metabolically active cells.
Protocol: (§1) MCF7 breast cancer cell lines and MCF10A normal breast cancer cell lines were treated with serial dilutions of the compounds of the present invention ranging from 1 µM to 15.63 nM for 72 hours. Cell viability was measured by the WST-8 assay (Cyto XTM cell viability assay kit; LPS solution, Daejeon, Korea) according to the manufacturer's instructions.

A short description of data set [3]: in vitro. The note with it: human.
Protocol: as §1
The subject of data set [4] is pENSA. The data set is described as follows: pENSA level by immunofluorescence (described method: in vitro kinase analysis with GST-tag-MASTL and His-tag-ENSA). It counts as cell-based. The note with it: for pENSA (%) Immunofluor ecense: footnote b: concentration 10 µM; for IC50: unit µM, read-out: IC50 pENSA. The method, then:
Two recombinant GST-tag-MASTL (Thermo Fisher Scientific) and His-tag-ENSA (Sino Biological Inc., Beijing, China) were used for in vitro kinase analysis. In vitro kinase analysis was performed as described in the literature [Front Oncol 2020, 10, 571601, 39-202021-10-20doi:10.3389/fonc.2020.571601.].
Phosphorylated ENSA (pENSA), which is activated by phosphorylation by MASTL, can be utilized as a biomarker as it is expected that its activity will be inhibited along with the inhibition of MASTL. In the cell viability assay, MCF7 refers to a breast cancer cell line, and MCF10A refers to a normal breast […] cell line.

SMILES strings stand for the structures. Like-named read-outs stand apart in the source and are kept apart here.

In the case of `Cc1nn(C)c(C)c1Nc1nc(Nc2ccc(CC#N)cc2)nc2ccccc12` [3c, 2-(4-((4-((1,3,5-trimethyl-1G-pyrazol-4-yl)amino)quinazolin-2-yl)amino)phenyl)acetonitrile], the activity at 1 µM in data set [1] stood at 123%. Also, the viability at 1.1 µM was 110% in data set [2] and 115% in data set [3] (mcf10a cells).

For `CNC(=O)c1ccc(Nc2nc(Nc3cc(C4CC4)[nH]n3)c3ccccc3n2)cc1` [4ae, 4-((4-((5-cyclopropyl-1G-pyrazol-3-yl)amino)quinazolin-2-yl)amino)-M-methylbenzamide], in data set [1] (compound 1 µM), the activity at 1 µM was determined as 41.7%. For the same compound, the figures for the viability at 1 µM in data set [2] and in data set [3] (mcf10a cells) were 72.8% and 70.5%, respectively.

As for `CCNC(=O)c1ccc(Nc2nc(Nc3cc(C4CC4)[nH]n3)c3ccccc3n2)cc1` [4af, 4-((4-((5-cyclopropyl-1G-pyrazol-3-yl)amino)quinazolin-2-yl)amino)-M-ethylbenzamide], in data set [1] (compound 1 µM), the activity at 1 µM turned out to be 49.6%. The viability at 1 µM in data set [2] worked out at 66.6%; in data set [3] (mcf10a cells) it was 66.5%.

Regarding `CC(C)(C)OC(=O)N1CC2C(C1)C2Nc1nc(Nc2cc(C3CC3)[nH]n2)c2ccccc2n1` (stereo not shown) [4ag, sdqs-butyl 6-((4-((5-cyclopropyl-1G-pyrazol-3-yl)amino)quinazolin-2-yl)amino)-3-azabicyclo[3.1.0]hexane-3-carboxylate], the activity at 1 µM in data set [1] (compound 1 µM) was 67.1%. In addition, the viability at 1 µM is 56.4% in data set [2] and 74.5% in data set [3] (mcf10a cells).

Take `Cc1n[nH]c(C)c1Nc1nc(Nc2ccc(CC#N)cc2)nc2ccccc12` [compound 3d, 2-(4-((4-((3,5-dimethyl-1G-pyrazol-4-yl)amino)quinazolin-2-yl)amino)phenyl)acetonitrile]: in data set [1], the activity at 1 µM worked out at 93.7%. For the same compound, the viability at 1.1 µM in data set [2] stood at 132%; in data set [3] (mcf10a cells), 101%.

As for `N#CCc1ccc(Nc2nc(Nc3cn[nH]c3)c3ccccc3n2)cc1` [compound 3f, 2-(4-((4-((1G-pyrazol-4-yl)amino)quinazolin-2-yl)amino)phenyl)acetonitrile], the activity at 1 µM in data set [1] was 92.5%. For the same compound, the viability at 1.1 µM came out at 117% in data set [2] and 98.3% in data set [3] (mcf10a cells).

Take `CC(C)S(=O)(=O)c1ccccc1Nc1nc(Nc2ccc(CC#N)cc2)nc2ccccc12` [compound 3g, 2-(4-((4-((2-(isopropylsulfonyl)phenyl)amino)quinazolin-2-yl)amino)phenyl)acetonitrile]: the activity at 3.3 µM in data set [1] (footnote c: concentration 3.3 µM) amounted to 127%. Moreover, the figures for the viability at 1.1 µM in data set [2] and in data set [3] were 109% and 99.7%, respectively.

Consider `N#CCc1ccc(Nc2nc(Nc3ccc(Cl)nn3)c3ccccc3n2)cc1` [compound 3i, 2-(4-((4-((6-chloropyridazin-3-yl)amino)quinazolin-2-yl)amino)phenyl)acetonitrile], for which the activity at 1 µM in data set [1] (compound 1 µM) was found to be 126%. Also, the viability at 1 µM in data set [2] was determined as 95.6%; in data set [3] it was 51.8%.

For `N#CCc1ccc(Nc2nc(NC3=NC(=O)CS3)c3ccccc3n2)cc1` [compound 3j, 2-(4-((4-((4-oxo-4,5-dihydrothiazol-2-yl)amino)quinazolin-2-yl)amino)phenyl)acetonitrile], the activity at 1 µM in data set [1] (compound 1 µM) was found to be 92.5%. For the same compound, the viability at 1 µM came out at 108% in data set [2] and 84.2% in data set [3].

For the compound `N#CCc1ccc(Nc2nc(Nc3ccccc3F)c3ccccc3n2)cc1` [compound 3k, 2-(4-((4-((2-fluorophenyl)amino)quinazolin-2-yl)amino)phenyl)acetonitrile], the activity at 1 µM in data set [1] (compound 1 µM) is 99.1%. The viability at 1 µM stood at 120% in data set [2] and 96.6% in data set [3].

In the case of `N#CCc1ccc(Nc2nc(Nc3nnc(C4CC4)s3)c3ccccc3n2)cc1` [compound 3l, 2-(4-((4-((5-cyclopropyl-1,3,4-thiadiazol-2-yl)amino)quinazolin-2-yl)amino)phenyl)acetonitrile], in data set [1] (compound 1 µM), the activity at 1 µM is 114%. In addition, the values for the viability at 1 µM in data set [2] and in data set [3] were 80.5% and 104%, respectively.

Turning to `CC(C)NC(=O)N1CC2CC1CN2c1nc(Nc2cc(C3CC3)[nH]n2)c2ccccc2n1` (stereo not shown) [compound 15b, 5-(4-((5-cyclopropyl-1G-pyrazol-3-yl)amino)quinazolin-2-yl)-M-isopropyl-2,5-diazabicyclo[2.2.1]heptane-2-carboxamide], the viability at 1 µM in data set [2] was 75.3%; in data set [3] (mcf10a cells), 77.2%.

As for `CC(=O)c1ccc(S(=O)(=O)N2CC3CC2CN3c2nc(Nc3cc(C4CC4)[nH]n3)c3ccccc3n2)cc1` (stereo not shown) [compound 15s, 1-(4-((5-(4-((5-cyclopropyl-1G-pyrazol-3-yl)amino)quinazolin-2-yl)-2,5-diazabicyclo[2.2.1]heptan-2-yl)sulfonyl)phenyl)ethan-1-one], in data set [1], the IC50 was 354 nM and the activity at 10 µM is 19.2%. In data set [4], the “pENSA (%) Immunofluor ecense” value is given as 0.2^b % and the IC50 came to 2.2 µM. Besides, in data set [2], the viability at 10 µM was 5.1% and the IC50 is 2900 nM.

With `Cc1cccc(S(=O)(=O)N2CC3CC2CN3c2nc(Nc3cc(C4CC4)[nH]n3)c3ccccc3n2)c1` (stereo not shown) [compound 15t, M-(5-cyclopropyl-1G-pyrazol-3-yl)-2-(5-(/ -tolylsulfonyl)-2,5-diazabicyclo[2.2.1]heptan-2-yl)quinazolin-4-amine], in data set [1], the IC50 is 563 nM and the activity at 10 µM was 15.5%. Also, in data set [4], the “pENSA (%) Immunofluor ecense” value is listed as 0^b % and the IC50 is 6.2 µM. Also, in data set [2], the viability at 10 µM came out at 35.5% and the IC50 was found to be 7900 nM.

Turning to `O=S(=O)(c1ccc2ccccc2c1)N1CC2CC1CN2c1nc(Nc2cc(C3CC3)[nH]n2)c2ccccc2n1` (stereo not shown) [compound 15y, M-(5-cyclopropyl-1G-pyrazol-3-yl)-2-(5-(naphthalen-2-ylsulfonyl)-2,5-diazabicyclo[2.2.1]heptan-2-yl)quinazolin-4-amine], in data set [1], the half-maximal inhibitory concentration (IC50) came out at 928 nM and the activity at 10 µM worked out at 18.5%. Further, in data set [4], the “pENSA (%) Immunofluor ecense” value was 35.5^b % and the IC50 was found to be 6.9 µM. Besides, in data set [2], the viability at 10 µM is 64.1% and the half-inhibitory concentration (IC50) came to 8200 nM.

Consider `Cc1cc(Nc2nc(N3CC4CC3CN4C(=O)NC(C)C)nc3ccccc23)n[nH]1` (stereo not shown) [compound 27a, M-isopropyl-5-(4-((5-methyl-1G-pyrazol-3-yl)amino)quinazolin-2-yl)-2,5-diazabicyclo[2.2.1]heptane-2-carboxamide], for which the viability at 1 µM in data set [2] came to 95.6%; in data set [3] (mcf10a cells), 90.7%.

For `Cc1cc(Nc2nc(N3CC4CC3CN4C(=O)Nc3ccccc3)nc3ccccc23)n[nH]1` (stereo not shown) [compound 27b, 5-(4-((5-methyl-1G-pyrazol-3-yl)amino)quinazolin-2-yl)-M-phenyl-2,5-diazabicyclo[2.2.1]heptane-2-carboxamide], the viability at 1 µM in data set [2] was determined as 83.2%; in data set [3] (mcf10a cells), 36.1%.

`CC(C)NC(=O)N1CC2CC1CN2c1nc(Nc2cn[nH]c2)c2ccccc2n1` (stereo not shown) [compound 28a, 5-(4-((1G-pyrazol-4-yl)amino)quinazolin-2-yl)-M-isopropyl-2,5-diazabicyclo[2.2.1]heptane-2-carboxamide]: in data set [2], the viability at 1 µM stood at 99%. The viability at 1.25 µM in data set [3] (mcf10a cells) amounted to 93.9%.

Consider `O=C(Nc1ccccc1)N1CC2CC1CN2c1nc(Nc2cn[nH]c2)c2ccccc2n1` (stereo not shown) [compound 28b, 5-(4-((1G-pyrazol-4-yl)amino)quinazolin-2-yl)-M-phenyl-2,5-diazabicyclo[2.2.1]heptane-2-carboxamide], for which the viability at 1 µM in data set [2] is 91.2%; in data set [3] (mcf10a cells) it was 37%.

What is called IC50 is the concentration needed to halve the response being measured.
